Experimental data reported in patent publication EP4076478B1, “COMPOSITION AND METHOD FOR THE TREATMENT OF TYPE I DIABETES” (Vector Vitale IP LLC, priority 2019, dated 2021).

Experiment: Accumulation of metals in liver and kidney tissues after intraperitoneal administration
Type: in vivo, rats
Conditions: day 1 and day 7 after discontinuation of the substances

zinc in the kidney and liver tissues: significantly increased
Compound: CC(=O)[O-].CC(=O)[O-].[Zn+2] [Zn acetate, Zn(CH3COO)2]
